Measurements reported in ChEMBL document CHEMBL3885861, “Open TG-GATES”.

Species: Rattus norvegicus
Experiment: Open TG-GATES - Regimen: Daily Repeat
Type: toxicity, organism-based, Sprague-Dawley
Parameters: regimen Daily Repeat, gender Male, age 6 weeks
Settings: in vivo, po, 0 mg/kg, route gavage, dose level Control; for Bas / Eos / Fbg / Ht / Lym / MCH / MCHC / MCV / Mono / Neu / PT / Plat / RBC / Ret / WBC / APTT: tissue Blood; for KIDNEY_L / KIDNEY_R / KIDNEY_TOTAL: tissue Kidney; for ALP / ALT / AST / CRE / Ca / Cl / DBIL / GLC / IP / K / LDH / RALB / TBIL / TC / TG / TP / gamma-GTP: tissue Plasma

`Cn1c(=O)c2c(ncn2C)n(C)c1=O` [CAFFEINE] showed a TERMINAL_BW (72 h, time 3 day) of 229.3 g, a Bas (72 h, time 3 day) of 0% and an Eos (72 h, time 3 day) of 0.6%. For the same compound, the Fbg (72 h, time 3 day) was 311 mg/dL, the Ht (72 h, time 3 day) was 39.9% and the Lym (72 h, time 3 day) was 81.2%. For the same compound, the MCH (72 h, time 3 day) was 21.1 pg, the MCHC (72 h, time 3 day) was 33.1% and the MCV (72 h, time 3 day) was 63.7 fL. The Mono (72 h, time 3 day) was 2%, the Neu (72 h, time 3 day) was 15.6% and the PT (72 h, time 3 day) was 15.7 s. For the same compound, the Plat (72 h, time 3 day) was 113.5 x10_4/uL, the RBC (72 h, time 3 day) was 627 x10_4/ul and the Ret (72 h, time 3 day) was 6.4%. It also gave a WBC (72 h, time 3 day) of 79.7 x10_2/uL, a KIDNEY_L (72 h, time 3 day) of 1 g and a KIDNEY_R (72 h, time 3 day) of 1 g. For the same compound, the KIDNEY_TOTAL (72 h, time 3 day) was 2 g, the ALP (72 h, time 3 day) was 1435.4 IU/L and the ALT (72 h, time 3 day) was 51.2 IU/L. It also gave an AST (72 h, time 3 day) of 77 IU/L, a CRE (72 h, time 3 day) of 0.2 mg/dL and a Ca (72 h, time 3 day) of 10.9 mg/dL. The Cl (72 h, time 3 day) was 108.2 meq/L, the DBIL (72 h, time 3 day) was 0 mg/dL and the GLC (72 h, time 3 day) was 187.2 mg/dL. It also gave an IP (72 h, time 3 day) of 7.9 mg/dL, a K (72 h, time 3 day) of 4.1 meq/L and an LDH (72 h, time 3 day) of 159 IU/L. The RALB (72 h, time 3 day) was 3 g/dL, the TBIL (72 h, time 3 day) was 0.004 mg/dL and the TC (72 h, time 3 day) was 69.2 mg/dL. For the same compound, the TG (72 h, time 3 day) was 83.4 mg/dL, the TP (72 h, time 3 day) was 5.6 g/dL and the gamma-GTP (72 h, time 3 day) was 1.4 IU/L. For the same compound, the TERMINAL_BW ([…], time 7 day) was 259.6 g, the TERMINAL_BW ([…], time 14 day) was 312 g and the TERMINAL_BW ([…], time 28 day) was 388.1 g. The APTT ([…], time 7 day) was 22.5 s, the Bas ([…], time 7 day) was 0% and the Eos ([…], time 7 day) was 0.8%. For the same compound, the Fbg ([…], time 7 day) was 342.6 mg/dL, the Ht ([…], time 7 day) was 40.7% and the Lym ([…], time 7 day) was 79%. The MCH ([…], time 7 day) was 21.2 pg, the MCHC ([…], time 7 day) was 33.6% and the MCV ([…], time 7 day) was 63.2 fL. The Mono ([…], time 7 day) was 1.8%, the Neu ([…], time 7 day) was 17.4% and the PT ([…], time 7 day) was 15.4 s. It also gave a Plat ([…], time 7 day) of 116.2 x10_4/uL, an RBC ([…], time 7 day) of 644.8 x10_4/ul and a Ret ([…], time 7 day) of 6%. It also gave a WBC ([…], time 7 day) of 120.4 x10_2/uL, an APTT ([…], time 14 day) of 22.6 s and a Bas ([…], time 14 day) of 0%. The Eos ([…], time 14 day) was 1%, the Fbg ([…], time 14 day) was 311.4 mg/dL and the Ht ([…], time 14 day) was 41.1%. For the same compound, the Lym ([…], time 14 day) was 84.2%, the MCHC ([…], time 14 day) was 34.2% and the MCV ([…], time 14 day) was 59.8 fL. The Mono ([…], time 14 day) was 2.4%, the Neu ([…], time 14 day) was 11.4% and the PT ([…], time 14 day) was 15.5 s. The Plat ([…], time 14 day) was 117.4 x10_4/uL, the RBC ([…], time 14 day) was 688 x10_4/ul and the Ret ([…], time 14 day) was 4.3%. The WBC ([…], time 14 day) was 117.6 x10_2/uL, the Bas ([…], time 28 day) was 0% and the Eos ([…], time 28 day) was 1.2%. For the same compound, the Fbg ([…], time 28 day) was 317 mg/dL, the Ht ([…], time 28 day) was 43.6% and the Lym ([…], time 28 day) was 81%. It also gave an MCH ([…], time 28 day) of 19.4 pg, an MCHC ([…], time 28 day) of 34.6% and an MCV ([…], time 28 day) of 56.1 fL. For the same compound, the Mono ([…], time 28 day) was 1.6%, the PT ([…], time 28 day) was 15.7 s and the Plat ([…], time 28 day) was 102.1 x10_4/uL. The RBC ([…], time 28 day) was 778.2 x10_4/ul, the Ret ([…], time 28 day) was 2.6% and the WBC ([…], time 28 day) was 103.3 x10_2/uL. For the same compound, the KIDNEY_L ([…], time 7 day) was 1.1 g, the KIDNEY_R ([…], time 7 day) was 1.1 g and the KIDNEY_TOTAL ([…], time 7 day) was 2.3 g. The KIDNEY_L ([…], time 14 day) was 1.2 g, the KIDNEY_R ([…], time 14 day) was 1.2 g and the KIDNEY_TOTAL ([…], time 14 day) was 2.4 g. For the same compound, the KIDNEY_L ([…], time 28 day) was 1.4 g, the KIDNEY_R ([…], time 28 day) was 1.5 g and the KIDNEY_TOTAL ([…], time 28 day) was 2.9 g. It also gave an ALP ([…], time 7 day) of 1993.2 IU/L, an ALT ([…], time 7 day) of 46 IU/L and an AST ([…], time 7 day) of 70.6 IU/L. For the same compound, the CRE ([…], time 7 day) was 0.1 mg/dL, the Ca ([…], time 7 day) was 10.5 mg/dL and the Cl ([…], time 7 day) was 106 meq/L. It also gave a DBIL ([…], time 7 day) of 0 mg/dL, a GLC ([…], time 7 day) of 197.8 mg/dL and an IP ([…], time 7 day) of 7.7 mg/dL. The K ([…], time 7 day) was 4.7 meq/L, the LDH ([…], time 7 day) was 185.6 IU/L and the RALB ([…], time 7 day) was 3 g/dL. The TBIL ([…], time 7 day) was 0 mg/dL, the TC ([…], time 7 day) was 76.6 mg/dL and the TG ([…], time 7 day) was 118.6 mg/dL. The TP ([…], time 7 day) was 5.5 g/dL, the gamma-GTP ([…], time 7 day) was 1.8 IU/L and the ALP ([…], time 14 day) was 1572.4 IU/L. It also gave an ALT ([…], time 14 day) of 40.8 IU/L, an AST ([…], time 14 day) of 68.4 IU/L and a CRE ([…], time 14 day) of 0.2 mg/dL. It also gave a Ca ([…], time 14 day) of 10.5 mg/dL, a Cl ([…], time 14 day) of 104.6 meq/L and a DBIL ([…], time 14 day) of 0 mg/dL. It also gave a GLC ([…], time 14 day) of 216 mg/dL, an IP ([…], time 14 day) of 7.5 mg/dL and a K ([…], time 14 day) of 4.5 meq/L. It also gave an LDH ([…], time 14 day) of 181 IU/L, an RALB ([…], time 14 day) of 3 g/dL and a TBIL ([…], time 14 day) of 0 mg/dL. The TG ([…], time 14 day) was 150.2 mg/dL, the TP ([…], time 14 day) was 5.8 g/dL and the gamma-GTP ([…], time 14 day) was 2.4 IU/L. For the same compound, the ALP ([…], time 28 day) was 1038 IU/L, the ALT ([…], time 28 day) was 43.6 IU/L and the AST ([…], time 28 day) was 66.6 IU/L. For the same compound, the CRE ([…], time 28 day) was 0.2 mg/dL, the Ca ([…], time 28 day) was 10.4 mg/dL and the Cl ([…], time 28 day) was 105 meq/L. The DBIL ([…], time 28 day) was 0 mg/dL, the GLC ([…], time 28 day) was 197.4 mg/dL and the IP ([…], time 28 day) was 6.6 mg/dL. It also gave a K ([…], time 28 day) of 4.1 meq/L, an LDH ([…], time 28 day) of 146 IU/L and an RALB ([…], time 28 day) of 3.1 g/dL. For the same compound, the TBIL ([…], time 28 day) was 0.004 mg/dL, the TC ([…], time 28 day) was 71 mg/dL and the TG ([…], time 28 day) was 138.8 mg/dL. The TP ([…], time 28 day) was 6.1 g/dL.
